Experimental data reported in US20140369979A1, “VECTOR SIMULTANEOUSLY EXPRESSING DODECAMERIC TRAIL AND HSV-TK SUICIDE GENES, AND ANTICANCER STEM CELL THERAPEUTIC AGENT USING SAME” (POSTECH ACADEMY-INDUSTRY FOUNDATION, priority 2012, published 2014).

Columns and labels:
[1] = tested on: TRAIL expression by MSC/dTRAIL-TK; assay: TRAIL expression of MSC/dTRAIL-TK after GCV treatment (ELISA of culture broth); type: cell-based, rat; settings: GCV 10, 30, 100 μM, culture broth every 24 hours
Experimental: Next, in order to examine whether TRAIL expression is reduced by MSC/dTRAIL-TK apoptosis, GCV was treated at the same concentrations, and the culture broth was collected every 24 hours to examine TRAIL expression by ELISA (enzyme-linked immunosorbent assay).

MSC/dTRAIL-TK = assay: Survival rate of MSC/dTRAIL-TK after GCV treatment (MTS method); type: cell-based, rat; settings: 100 μM GCV, one week after treatment
Experimental: In order to examine the suicide induction effect of MSC/dTRAIL-TK by GCV treatment, cells were treated with 10, 30, and 100 μM of GCV. From 1 day after GCV treatment, survival rate of MSC/dTRAIL-TK was examined by an MTS method every other day.

Nc1nc(O)c2ncn(COC(CO)CO)c2n1 [GCV, ganciclovir]
TRAIL expression [1]: TRAIL expression was reduced
survival rate of MSC/dTRAIL-TK (MSC/dTRAIL-TK): almost all cells were eliminated
